Reference: patent US11278682B2, “Device and method for aerosolized delivery of substance to a natural orifice of the body” (SIPNOSE LTD., priority 2014, dated 2022)

Legend:
patients [1] = assay: Midazolam as pre-anesthetic drug: effectiveness, safety and user compliance, SipNose vs commercial nasal pump; format: in vivo, human; conditions: for BIS value (minimum after administration): 8 patients
Method: Midazolam was administered as a pre-anesthetic drug as a part of premeditation to subjects that needed to be anesthetized prior to the beginning a surgical procedure. Administration of the pre-anesthetic drug was done intranasally instead of the routine PO/IM (oral/intramuscular) route used by the anesthesiologist from the hospital.
The intranasal administration was given by one of the following medical devices: a SipNose nasal device (FIG. 93A) or a commercial nasal pump (FIG. 93B). A single dose of 1×600 microliter (μl) was given with the SipNose device, while 6×100 μl doses were given with a commercial nasal pump. An exemplary administration for the SipNose device is shown in FIG. 94A, while an exemplary administration for the commercial nasal pump is shown in FIG. 94B.
Eight low-risk patients (American Society of Anesthesiology physical status classification I or II) patients were included in each group. Clinical status of the patients, standard continuous monitoring of vital signs, and continuous bispectral index (BIS) monitoring was ongoing 5 minutes before intranasal administration and 30 minutes after.
The objective data consisted in minimum BIS value obtained after administration and time until minimum BIS. The subjective data consisted in physician feedback, swallowing of the drug appreciated by patient, sleeping score appreciated by physician.
Sedation Score was evaluated by physicians as a behavior tool to determine effectiveness of the dose that was given in each of the nasal administrations. Scoring was done according to the following criteria: 1=not Sleepy (not effective); 2=Sleepy/Calm (intermediate effect); 3=Sleeping (drug was effective).
Patients were asked to score if they felt the drug in their throat and/or felt a bitter taste in the throat after the administration of the drug.
The bitterness and swallowing were graded according to the following scale: 1=No swallowing/No bitter taste; 5=A meaningful amount was swallowed/Strong bitter taste.
The repeated administrations with the nasal pump were given with 30 s intervals between them to allow the drug to be absorbed in the nasal cavity before another dose was given.
The anesthesiologist in charge of the patients was asked to rate the overall experience with intranasal administration of midazolam. (1=very good; 5=Not satisfactory).

patients [2] = assay: Midazolam pre-medication sedation (BIS EEG monitoring), 3 mg, SipNose vs commercial nasal pump; format: in vivo, human; conditions: for failures in inducing anesthesia: both comparisons pooled (3 mg and 1.4 mg)
Method: A comparison was made of the efficacy of delivery of the anesthetic Midazolam, when used for pre-medication, between an embodiment of the SipNose device of the present invention and a prior-art device, the commercial nasal pump based on positive displacement (as the pump used for Alrin™ delivery) and the MAD Nasal from Wolfe Tory.
Comparison with nasal pump (using 5 mg/ml solution): For a pre-medication procedure with commercial nasal pump (positive displacement pump), in order to achieve the desired dose of 3 mg Midazolam, the delivery device was inserted into a nostril and an aliquot of Midazolam is delivered. The delivery device is then inserted into the opposite nostril and a second aliquot of Midazolam is delivered. This is repeated twice more with a 30 s intervals between each cycle, for a total of six aliquots of Midazolam, three in each nostril. As opposed to that, for a SipNose device delivery, a single dose of 0.6 ml was delivered to one nostril.
In order to determine the efficacy of anesthetization a BIS EEG monitoring was used, where the BIS values for brain activity are calculated from the EEG activity. Awake, unsedated individuals typically have BIS values ≥97. Mildly sedated individuals typically have BIS values in the 80's, moderately sedated individuals typically have BIS values in the 70's, while fully sedated individuals typically have BIS values below about 70; BIS values between about 45 and about 60 are commonly used for general anesthesia during the maintenance phase of an operation.
Two comparisons were made between the commercial device and the present, SipNose, device. In the first, 3 mg of Midazolam was administered and the commercial device was a commercial nasal pump (positive displacement), in the second, 1.4 mg of Midazolam was administered and the commercial device was a MAD applicator.

[3] = tested on: Pentylenetetrazol (PTZ)-induced epileptic seizures in rats; assay: Brain concentration of Midazolam vs convulsion score in PTZ-induced seizures; format: in vivo, rat; conditions: 60 minutes after administration
Method: Epileptic seizures were induced in rats by administration of Pentylenetetrazol (PTZ) and the severity of the seizures was measured 60 minutes after administration of Mizadolam. Doses of Mizadolam varied from zero to 6 mg/kg with SipNose nasal delivery device and with an I/V administration. Brain concentrations of Midazolam were measured and a correlation between brain concentration and convulsions score is shown in FIG. 81. Brain concentrations varied from zero to 130 ng/gr brain tissue. Black squares represent the I/V administrated animals and black dots represent the SipNose administrated animals.

[4] = tested on: patient suffering from epileptic seizures (SE); assay: Anti-epileptic treatment of status epilepticus with Midazolam, EEG recordings (case study); format: in vivo, human; conditions: 2 mg Midazolam via SipNose, nasal
Method: Case study of a patient, suffering from epileptic seizures (SE) was treated with a dose of 2 mg Midazolam with sipNose delivery device to deliver Midazolam via the nasal cavity.
Administration of Midazolam was done by administrating of […] of Midazolam to each nostril in a carrier volume of 1 ml. EEG recordings were measured before (FIGS. 82A and 82B) and 3 minutes following to the nasal administration of the drug with SipNose device.

[5] = Dose-response of Midazolam brain concentration; format: in vivo, rat; conditions: rats; doses about 0.6 to about 6 mg/kg; brain concentration 60 minutes after administration
Method: In this example, doses of Midazolam between about 0.6 mg/kg and about 6 mg/kg were administered to rats and the concentration of Midazolam in the brain was measured 60 minutes after administration.

[6] = tested on: Pentylenetetrazol (PTZ)-induced epileptic seizures in rats; assay: Pentylenetetrazol (PTZ)-induced epileptic seizures, Racine grading, Midazolam IV vs SipNose; format: in vivo, rat
Method: In this example, epileptic seizures were induced in rats by administration of 47.5-50 mg/kg of Pentylenetetrazol (PTZ) for 5 min before the start of treatment with Midazolam. The Midazolam was administered either via IV or using a SipNose device, via the nasal passages. There were two dosing levels, 0.6 mg/kg (FIG. 78) and 6 mg/kg (FIG. 79).
In all cases, the Racine grading standard was used to determine the severity of the seizures. PZT was at t=−5 min, the start of treatment was at time t=0.
Treatment consisted of saline (control, diamonds), Midazolam administered by IV (triangles) or Midazolam administered nasally by a SipNose device (squares).

[7] = commercial nasal pump, 3 mg Midazolam

Cc1ncc2n1-c1ccc(Cl)cc1C(c1ccccc1F)=NC2 [Midazolam]
patients with Highly Effective sedation (patients [1]; Commercial Nasal Pump): 12.5% | patients with Intermediate Effect of sedation (patients [1]; Commercial Nasal Pump): 50% | patients with sedation Not Effective (patients [1]; Commercial Nasal Pump): 37.5% | patients with Highly Effective sedation (patients [1]; SipNose): 100% | Sedation Score (1 not sleepy, 2 sleepy/calm, 3 sleeping) (patients [1]; SipNose group): 3 | BIS value (minimum after administration) (patients [1]; SipNose group, 1×600 μl): 74.50±3.196 | adverse events or safety issues (patients [1]; both administration procedures (SipNose and commercial nasal pump)): No adverse events or safety issues were reported | Sedation Score (1 not sleepy, 2 sleepy/calm, 3 sleeping) (patients [1]; commercial pump group): below 2 | BIS value (minimum after administration) (patients [1]; commercial pump group, 6×100 μl): 87.25±1.840 | Adverse events (patients [2]; SipNose device, 3 mg Midazolam): 0 | Level of minimum BIS (patients [2]; SipNose device, 3 mg Midazolam): 74.5±9 | Mean onset time (patients [2]; SipNose device, 3 mg Midazolam): 5.9 ± 4.6 min | level of Maximum BIS (patients [2]; SipNose device, 3 mg Midazolam): 97 | sleep score (1 not sleepy, 2 sleepy or calm, 3 sleeping) (patients [2]; SipNose device, 3 mg Midazolam): 3 | Number of Positive Sedations (patients [2]; SipNose device, 3 mg Midazolam, 8 patients): 8 | failures in inducing anesthesia (patients [2]; SipNose device): no failures in 10 patients | sleep score (1 not sleepy, 2 sleepy or calm, 3 sleeping) (patients [2]; commercial device (nasal pump), 3 mg Midazolam): less than 2 | failures in inducing anesthesia (patients [2]; commercial devices): 2 failures and one partial failure in 6 patients | Adverse events (patients [2]; [7]): 0 | Level of minimum BIS (patients [2]; [7]): 87.5±5.3 | Mean onset time (patients [2]; [7]): 6.7 ± 4.6 min | Minimum BIS excluding failure (patients [2]; [7]): 85 | level of Maximum BIS (patients [2]; [7]): 97 | Number of Positive Sedations (patients [2]; commercial nasal pump, 3 mg Midazolam, 4 patients): 3 | Midazolam brain concentration at which Racine severity reaches zero ([3]; IV administration): about 130 ng/gm | Midazolam brain concentration up to which Racine severity remained at about 1 ([3]; IV administration): about 25 ng/gm | Midazolam brain concentration needed to completely prevent seizures (score=0) ([3]; SipNose administration): ~11 ng/gm | time after administration at which brain activity (EEG) is back to normal [4]: 3 min | dose-response curve of brain concentration [5]: essentially linear | Racine seizure severity ([6]; 0.6 mg/kg Midazolam nasally by SipNose, about t=10 min to t=60 min): zero, no seizures were seen | Racine seizure severity ([6]; 6 mg/kg Midazolam IV): < 0.5 | Racine seizure severity ([6]; 6 mg/kg Midazolam nasally by SipNose): < 0.5
